# According to US10508120B2, “TYK2 inhibitors and uses thereof” (Nimbus Lakshmi, Inc., priority 2017, dated 2019):
# How the values were obtained:
# [1] = molecular target: JAK2 kinase domain (JH1) (Homo sapiens (Human), UniProt O60674); assay: JAK2 Radioactive Kinase Assay; assay type: biochemical; settings: for inhibition at 10 µM: read-out: JAK2 JH1% Inhibition @ 10 μM
# Description: (§1) The Tyk2 and JAK2 radioactive kinase assay measures the percent inhibition at the Tyk2 kinase domain (DH1) and the percent inhibition at the JAK2 kinase domain (JH1). Results of the assay are expressed as percent inhibition at 10 μM.
# [2] = molecular target: Tyk2 kinase domain (DH1) (Homo sapiens (Human), UniProt P29597); assay: Tyk2 Radioactive Kinase Assay; assay type: biochemical; settings: for inhibition at 10 µM: read-out: Tyk2 JH1% Inhibition @ 10 μM
# Sequence of Tyk2 kinase domain (DH1) (P29597 897-1176): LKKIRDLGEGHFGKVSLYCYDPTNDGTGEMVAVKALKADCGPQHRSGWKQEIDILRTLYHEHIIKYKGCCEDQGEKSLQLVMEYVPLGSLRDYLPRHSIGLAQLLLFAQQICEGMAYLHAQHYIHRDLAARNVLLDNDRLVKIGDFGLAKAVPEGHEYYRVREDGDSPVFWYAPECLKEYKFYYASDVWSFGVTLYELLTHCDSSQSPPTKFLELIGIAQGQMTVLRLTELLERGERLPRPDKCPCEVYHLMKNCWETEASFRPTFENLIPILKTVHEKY
# Description: as §1
# Sequence of JAK2 kinase domain (JH1) (O60674 849-1124): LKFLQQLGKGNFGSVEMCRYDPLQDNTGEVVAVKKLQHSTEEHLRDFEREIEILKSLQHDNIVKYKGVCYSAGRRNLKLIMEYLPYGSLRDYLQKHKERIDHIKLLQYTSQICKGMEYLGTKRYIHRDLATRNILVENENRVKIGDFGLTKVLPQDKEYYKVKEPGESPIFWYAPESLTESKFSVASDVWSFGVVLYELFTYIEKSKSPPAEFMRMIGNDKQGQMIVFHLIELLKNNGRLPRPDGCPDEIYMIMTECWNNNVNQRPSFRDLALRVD
"inhibition at 10 µM ([1]; 10 μM compound, 10 μM ATP) [%]","inhibition at 10 µM ([2]; 10 μM compound, 10 μM ATP) [%]",SMILES,"JAK2 JH1% Inhibition @ 10 μM ([1]; compound at 10 μM, ATP 10 μM)","Tyk2 JH1% Inhibition @ 10 μM ([2]; compound at 10 μM, ATP 10 μM)",other results
,,CNc1cc(Nc2cccn([C@H]3CCN(C)C[C@@H]3F)c2=O)nc2c(C(=O)NC3CC3)cnn12 [I-685],A (percent inhibition at 10 μM lower than 50),A (percent inhibition at 10 μM lower than 50),
,,CNc1cc(Nc2cccn([C@H]3CCCOC3)c2=O)nc2c(C(=O)N[C@H]3CC[C@@H]3O)cnn12 [I-724],A (percent inhibition at 10 μM lower than 50),A (percent inhibition at 10 μM lower than 50),
,,CNc1cc(Nc2cccn([C@@H]3CCCOC3)c2=O)nc2c(C(=O)N[C@H]3CC[C@@H]3O)cnn12 [I-726],A (percent inhibition at 10 μM lower than 50),A (percent inhibition at 10 μM lower than 50),
,,CNc1cc(Nc2cccn(-c3nc(C)co3)c2=O)nc2c(C(=O)N[C@H]3CC[C@@H]3O)cnn12 [I-769],A (percent inhibition at 10 μM lower than 50),A (percent inhibition at 10 μM lower than 50),
,,CNc1cc(Nc2cccn([C@@H]3CCCOC3)c2=O)nc2c(C(=O)N[C@@H]3CCC[C@@H](O)C3)cnn12 [I-780],A (percent inhibition at 10 μM lower than 50),A (percent inhibition at 10 μM lower than 50),
,,CNc1cc(Nc2cccn([C@@H]3CCCOC3)c2=O)nc2c(C(=O)N[C@H]3COC[C@H]3O)cnn12 [I-786],A (percent inhibition at 10 μM lower than 50),A (percent inhibition at 10 μM lower than 50),
,,CNc1cc(Nc2cccn([C@@H]3CC[C@H]3O)c2=O)nc2c(C(=O)NC3CC3)cnn12 [I-802],A (percent inhibition at 10 μM lower than 50),A (percent inhibition at 10 μM lower than 50),
,,CNc1cc(Nc2cccn([C@H]3CCCOC3)c2=O)nc2c(C(=O)N[C@H]3CC[C@H]3O)cnn12 [I-803],A (percent inhibition at 10 μM lower than 50),A (percent inhibition at 10 μM lower than 50),
< 50,< 50,CNc1cc(Nc2cccn([C@H]3CCC[C@H](O)C3)c2=O)nc2c(C(=O)NC3CC3)cnn12 [I-821],,,
< 50,< 50,CNc1cc(Nc2cc(Cl)cn(C3CCOCC3)c2=O)nc2c(C(=O)N[C@H]3CC[C@@H]3O)cnn12 [I-826],,,
< 50,< 50,CNc1cc(Nc2cccc(N3CCO[C@@]4(CCOC4)C3)n2)nc2c(C(=O)NC3CC3)cnn12 [I-828],,,
< 50,< 50,CNc1cc(-c2cn(CCN3CCOCC3)c3ncccc23)nc2c(C(=O)N[C@@H]3CC[C@H]3O)cnn12 [I-835],,,
< 50,< 50,CNc1cc(Nc2cccn([C@H]3CCC[C@@H](OC)C3)c2=O)nc2c(C(=O)N[C@@H]3C[C@@H]3F)cnn12 [I-839],,,
< 50,< 50,CNc1cc(Nc2cccn([C@@H]3C[C@H]3F)c2=O)nc2c(C(=O)NC3CC3)cnn12 [I-866],,,
< 50,< 50,CNc1cc(Nc2cccn(C3CC4(COC4)C3)c2=O)nc2c(C(=O)N[C@H]3CC[C@H]3O)cnn12 [I-870],,,
,,CNc1cc(Nc2cccn(C3CCN(CCF)CC3)c2=O)nc2c(C(=O)N[C@H]3CC[C@H]3O)cnn12 [I-896],,,"JAK2 JH1% Inhibition @ 10 μM ([1]; 10 μM compound, 10 μM ATP): A (percent inhibition at 10 μM lower than 50); Tyk2 JH1% Inhibition @ 10 μM ([2]; 10 μM compound, 10 μM ATP): A (percent inhibition at 10 μM lower than 50)"
,,CNc1cc(Nc2cccn(C3CCN(CCF)CC3)c2=O)nc2c(C(=O)N[C@@H]3CC[C@H]3O)cnn12 [I-898],,,"JAK2 JH1% Inhibition @ 10 μM ([1]; 10 μM compound, 10 μM ATP): A (percent inhibition at 10 μM lower than 50); Tyk2 JH1% Inhibition @ 10 μM ([2]; 10 μM compound, 10 μM ATP): A (percent inhibition at 10 μM lower than 50)"
